From ChEMBL document CHEMBL5712909, “WDR5 inhibition halts metastasis dissemination by repressing the mesenchymal phenotype of breast cancer cells” (2019)
The source made the active and inactive calls. The rule behind the calls is not given here.

Experiments:
MBC26 [1] = experiment: Antiproliferative activity against human MBC26 cells assessed as reduction in cell viability at 10 uM for 3 days by cell titre glo assay; format: functional, cell-based; conditions: time 3.0 day
MDA-MB-231 [2] = experiment: Induction of cell cycle arrest in human MDA-MB-231 cells assessed as accumulation of cells in S phase at 10 nM for 3 days by BrDU and PI staining based flow cytometric analysis (reference value: 45.7%); format: functional
MDA-MB-231 [3] = experiment: Induction of cell cycle arrest in human MDA-MB-231 cells assessed as accumulation of cells in S phase at 10 uM for 3 days by BrDU and PI staining based flow cytometric analysis (reference value: 45.7%); format: functional; conditions: time 3 day
MDA-MB-231 [4] = experiment: Induction of cell cycle arrest in human MDA-MB-231 cells assessed as accumulation of cells in not cycling S phase at 20 microM for 3 days by BrDU and PI staining based flow cytometric analysis (reference value: 2.5%); format: functional
MBC2 [5] = experiment: Antiproliferative activity against human MBC2 cells assessed as reduction in cell viability at 10 uM for 3 days by cell titre glo assay; format: functional, cell-based; conditions: time 3.0 day
MDA-MB-231 [6] = experiment: Inhibition of cell migration in human MDA-MB-231 cells assessed as reduction in cell migration at 10 microM for 3 days by crystal violet staining based transwell assay; format: functional; conditions: time 3.0 day
MDA-MB-231 [7] = experiment: Induction of cell cycle arrest in human MDA-MB-231 cells assessed as accumulation of cells in G2/M phase at 10 uM for 3 days by BrDU and PI staining based flow cytometric analysis (reference value: 19.3%); format: functional
MDA-MB-231 [8] = experiment: Induction of cell cycle arrest in human MDA-MB-231 cells assessed as accumulation of cells in not cycling S phase at 10 uM for 3 days by BrDU and PI staining based flow cytometric analysis (reference value: 2.5%); format: functional; conditions: time 3 day
MDA-MB-231 [9] = experiment: Induction of cell cycle arrest in human MDA-MB-231 cells assessed as accumulation of cells in S phase at 20 microM for 3 days by BrDU and PI staining based flow cytometric analysis (reference value: 45.7%); format: functional
MDA-MB-231 [10] = experiment: Induction of cell cycle arrest in human MDA-MB-231 cells assessed as accumulation of cells in not cycling S phase at 10 nM for 3 days by BrDU and PI staining based flow cytometric analysis (reference value: 2.5%); format: functional
MCF10DCIS [11] = experiment: Inhibition of cell migration in human MCF10DCIS cells assessed as reduction in cell migration at 10 microM for 3 days by crystal violet staining based transwell assay; format: functional; conditions: time 3.0 day
MDA-MB-231 [12] = experiment: Induction of cell cycle arrest in human MDA-MB-231 cells assessed as accumulation of cells in G0/G1 phase at 10 uM for 3 days by BrDU and PI staining based flow cytometric analysis (reference value: 30.5%); format: functional
MBC26 [13] = experiment: Antiproliferative activity against human MBC26 cells assessed as reduction in cell viability at 20 uM for 3 days by cell titre glo assay; format: functional, cell-based; conditions: time 3.0 day
MBC2 [14] = experiment: Inhibition of cell migration in human MBC2 cells assessed as reduction in cell migration at 20 microM for 3 days by crystal violet staining based transwell assay; format: functional; conditions: time 3.0 day
MCF10DCIS [15] = experiment: Inhibition of cell migration in human MCF10DCIS cells assessed as reduction in cell migration incubated for 3 days by crystal violet staining based transwell assay; format: functional; conditions: dose 1-20 µM, time 3.0 day
MDA-MB-231 [16] = experiment: Induction of cell cycle arrest in human MDA-MB-231 cells assessed as accumulation of cells in G0/G1 phase at 20 microM for 3 days by BrDU and PI staining based flow cytometric analysis (reference value: 30.5%); format: functional; conditions: time 3 day
MBC2 [17] = experiment: Antiproliferative activity against human MBC2 cells assessed as reduction in cell viability at 20 uM for 3 days by cell titre glo assay; format: functional, cell-based; conditions: time 3.0 day
MDA-MB-231 [18] = experiment: Inhibition of cell migration in human MDA-MB-231 cells assessed as reduction in cell migration incubated for 3 days by crystal violet staining based transwell assay; format: functional; conditions: dose 1-20 µM, time 3.0 day
MBC26 [19] = experiment: Inhibition of cell migration in human MBC26 cells assessed as reduction in cell migration at 20 microM for 3 days by crystal violet staining based transwell assay; format: functional; conditions: time 3.0 day
MDA-MB-231 [20] = experiment: Induction of cell cycle arrest in human MDA-MB-231 cells assessed as accumulation of cells in G2/M phase at 10 nM for 3 days by BrDU and PI staining based flow cytometric analysis (reference value: 19.3%); format: functional
MCF-10A = experiment: Inhibition of cell migration in human MCF-10A cells assessed as reduction in cell migration incubated for 3 days by crystal violet staining based transwell assay; format: functional; conditions: dose 1-20 µM, time 3.0 day
MDA-MB-231 [21] = experiment: Induction of cell cycle arrest in human MDA-MB-231 cells assessed as accumulation of cells in G2/M phase at 20 microM for 3 days by BrDU and PI staining based flow cytometric analysis (reference value: 19.3%); format: functional; conditions: time 3 day
MDA-MB-231 [22] = experiment: Induction of cell cycle arrest in human MDA-MB-231 cells assessed as accumulation of cells in G0/G1 phase at 10 nM for 3 days by BrDU and PI staining based flow cytometric analysis (reference value: 30.5%); format: functional
MBC26 [23] = experiment: Cytotoxicity against human MBC26 cells assessed as cell viability for 3 days at 1 to 10 nM in presence of -Gaulnisertib; format: functional, cell-based; conditions: dose 1-10 nM, time 3.0 day
MDA-MB-231 [24] = experiment: Induction of cell cycle arrest in human MDA-MB-231 cells assessed as cleaved PARP at 10 nM for 3 days in presence of OICR-9429 by Western blot analysis; format: functional, cell-based; conditions: time 3.0 day
MDA-MB-231 [25] = experiment: Induction of cell cycle arrest in human MDA-MB-231 cells assessed as cleaved PARP at 10 nM for 3 days in presence of galunisertib by Western blot analysis; format: functional, cell-based; conditions: time 3.0 day
MDA-MB-231 [26] = experiment: Induction of cell cycle arrest in human MDA-MB-231 cells assessed as accumulation of cells in S phase at 10 nM for 3 days in presence of OCIR-9429 by BrDU and PI staining based flow cytometric analysis (reference value: 45.7%); format: functional; conditions: time 3 day
MDA-MB-231 [27] = experiment: Induction of cell cycle arrest in human MDA-MB-231 cells assessed as accumulation of cells in S phase at 10 nM for 3 days in presence of galunisertib by BrDU and PI staining based flow cytometric analysis (reference value: 45.7%); format: functional; conditions: time 3 day
MDA-MB-231 [28] = experiment: Induction of cell cycle arrest in human MDA-MB-231 cells assessed as DNA damage by measuring gamma H2AX phosphorylation at 10 nM for 3 days in presence of galunisertib by Western blot analysis; format: functional, cell-based; conditions: time 3.0 day
MDA-MB-231 [29] = experiment: Induction of cell cycle arrest in human MDA-MB-231 cells assessed as accumulation of cells in G0/G1 phase at 10 nM for 3 days in presence of OCIR-9429 by BrDU and PI staining based flow cytometric analysis (reference value: 30.5%); format: functional; conditions: time 3 day
MDA-MB-231 [30] = experiment: Cytotoxicity against human MDA-MB-231 cells assessed as cell viability at 10 nM for 3 days in presence of galunisertib relative to control; format: functional; conditions: MDA-MB-231, 72 h, time 3 day, read-out: Activity
MDA-MB-231 [31] = experiment: Induction of cell cycle arrest in human MDA-MB-231 cells assessed as DNA damage by measuring gamma H2AX phosphorylation at 10 nM for 3 days in presence of OICR-9429 by Western blot analysis; format: functional, cell-based; conditions: time 3.0 day
MDA-MB-231 [32] = experiment: Cytotoxicity against human MDA-MB-231 cells assessed as cell viability at 10 nM for 3 days in presence of OCIR-9429 relative to control; format: functional; conditions: MDA-MB-231, 72 h, time 3 day, read-out: Activity
MDA-MB-231 [33] = experiment: Induction of cell cycle arrest in human MDA-MB-231 cells assessed as accumulation of cells in G2/M phase at 10 nM for 3 days in presence of galunisertib by BrDU and PI staining based flow cytometric analysis (reference value: 19.3%); format: functional; conditions: time 3 day
MBC2 [34] = experiment: Cytotoxicity against human MBC2 cells assessed as cell viability at 1 to 10 nM for 3 days in presence of OCIR-9429; format: functional, cell-based; conditions: dose 1-10 nM, time 3.0 day
MBC2 [35] = experiment: Cytotoxicity against human MBC2 cells assessed as cell viability at 1 to 10 nM for 3 days in presence of galunisertib; format: functional, cell-based; conditions: dose 1-10 nM, time 3.0 day
MDA-MB-231 [36] = experiment: Induction of cell cycle arrest in human MDA-MB-231 cells assessed as accumulation of cells in not cycling S phase at 10 nM for 3 days in presence of OCIR-9429 by BrDU and PI staining based flow cytometric analysis (reference value: 2.5%); format: functional; conditions: time 3 day
MBC26 [37] = experiment: Cytotoxicity against human MBC26 cells assessed as cell viability for 3 days at 1 to 10 nM in presence of OCIR-9429; format: functional, cell-based; conditions: dose 1-10 nM, time 3.0 day
MDA-MB-231 [38] = experiment: Induction of cell cycle arrest in human MDA-MB-231 cells assessed as accumulation of cells in not cycling S phase at 10 nM for 3 days in presence of galunisertib by BrDU and PI staining based flow cytometric analysis (reference value: 2.5%); format: functional; conditions: time 3 day
MDA-MB-231 [39] = experiment: Induction of cell cycle arrest in human MDA-MB-231 cells assessed as accumulation of cells in G2/M phase at 10 nM for 3 days in presence of OCIR-9429 by BrDU and PI staining based flow cytometric analysis (reference value: 19.3%); format: functional; conditions: time 3 day
MDA-MB-231 [40] = experiment: Induction of cell cycle arrest in human MDA-MB-231 cells assessed as accumulation of cells in G0/G1 phase at 10 nM for 3 days in presence of galunisertib by BrDU and PI staining based flow cytometric analysis (reference value: 30.5%); format: functional; conditions: time 3 day

## Cc1cccc(-c2nn3c(c2-c2ccnc4ccc(C(N)=O)cc24)CCC3)n1 [GALUNISERTIB]
MBC26 [1]
  Activity: inactive
MDA-MB-231 [2]; time 3.0 day
  Activity: Active
MDA-MB-231 [3]
  Activity: 48.8%
MDA-MB-231 [4]; time 3.0 day
  Activity: inactive
MBC2 [5]
  Activity: inactive
MDA-MB-231 [6]
  inhibition: Active
MDA-MB-231 [7]; time 3 day
  Activity: 18.5%
MDA-MB-231 [8]
  Activity: 1.5%
MDA-MB-231 [9]; time 3.0 day
  Activity: inactive
MDA-MB-231 [10]; time 3.0 day
  Activity: Active
MCF10DCIS [11]
  inhibition: Active
MDA-MB-231 [12]; time 3 day
  Activity: 30.4%

## CN1CCN(c2ccc(-c3cccc(CN4CCOCC4)c3)cc2NC(=O)c2c[nH]c(=O)cc2C(F)(F)F)CC1
MBC26 [13]
  Activity: inactive
MBC2 [14]
  inhibition: Active
MCF10DCIS [15]
  inhibition: Dose-Dependent Effect
MDA-MB-231 [16]
  Activity: 32.3%
MBC2 [17]
  Activity: inactive
MDA-MB-231 [18]
  inhibition: Dose-Dependent Effect
MDA-MB-231 [4]; time 3 day
  Activity: 2.2%
MDA-MB-231 [7]; time 3.0 day
  Activity: Active
MBC26 [19]
  inhibition: Active
MDA-MB-231 [20]; time 3.0 day
  Activity: Active
MCF-10A
  inhibition: inactive
MDA-MB-231 [9]; time 3 day
  Activity: 46%
MDA-MB-231 [21]
  Activity: 19.1%
MDA-MB-231 [12]; time 3.0 day
  Activity: inactive
MDA-MB-231 [22]; time 3.0 day
  Activity: Active

## CC(=O)O[C@H]1C(=O)[C@@]2(C)[C@H]([C@H](OC(=O)c3ccccc3)[C@]3(O)C[C@H](OC(=O)[C@H](O)[C@@H](NC(=O)c4ccccc4)c4ccccc4)C(C)=C1C3(C)C)[C@]1(OC(C)=O)CO[C@@H]1C[C@@H]2O [PACLITAXEL]
MBC26 [23]
  Activity: Active
MDA-MB-231 [2]; time 3 day
  Activity: 38.6%
MDA-MB-231 [24]
  Activity: Active
MDA-MB-231 [25]
  Activity: Active
MDA-MB-231 [26]
  Activity: 26.7%
MDA-MB-231 [27]
  Activity: 34%
MDA-MB-231 [28]
  Activity: Active
MDA-MB-231 [29]
  Activity: 22.4%
MDA-MB-231 [30]
  viability at 0.01 µM: 10%
MDA-MB-231 [31]
  Activity: Active
MDA-MB-231 [32]
  viability at 0.01 µM: 10%
MDA-MB-231 [33]
  Activity: 40.1%
MBC2 [34]
  Activity: Active
MDA-MB-231 [20]; time 3 day
  Activity: 31.7%
MDA-MB-231 [10]; time 3 day
  Activity: 9.2%
MBC2 [35]
  Activity: Active
MDA-MB-231 [36]
  Activity: 11.9%
MBC26 [37]
  Activity: Active
MDA-MB-231 [38]
  Activity: 8%
MDA-MB-231 [39]
  Activity: 37.5%
MDA-MB-231 [40]
  Activity: 16.7%
MDA-MB-231 [22]; time 3 day
  Activity: 19.2%
